How the values were obtained:
[1] = system: NCIH929.1 cells; assay: NCIH929.1 cell viability assay (CellTiter-Glo, GI50); assay type: cell-based; details: 96 hr
[2] = system: TMD8 DLBCL tumors; details: Compound 1 50 μg/kg, Ibrutinib 12500 μg/kg, Combination of both; PO daily
Description: A xenograft study was conducted in female CB17 SCID mice bearing TMD8 DLBCL tumors. Female SCID mice were inoculated subcutaneously in the right flank with 5×10^6 tumors cells in 0.2 mL of PBS supplemented with matrigel (PBS:matrigel=1:1). Tumor volume was measured twice weekly in two dimensions using calipers, and volume was calculated using the formula: (w2×l)/2=mm^3, assuming 1 mg is equivalent to 1 mm^3 of tumor volume. […] Treatment began on Day 0 with established subcutaneous TMD8 tumors with a mean tumor volume (MTV) of 107-108 mm^3.
All agents were administered to mice bearing TMD8 tumors on day 0 and dosed PO daily until individual tumor volumes reached or exceeded 1500 mm^3, at which point dosing stopped and the individual mouse was removed from the study. Compound 1 was dosed at 50 μg/kg and was formulated in PEG400 (30% v/v)+70% v/v HPMC (1% w/v) in citrate buffer (pH 5). Ibrutinib was dosed at 12.5 mg/kg and formulated in 0.5% MC+0.4% cremophor EL+0.1% sodium lauryl sulfate. Compound 1 was also dosed in combination with Ibrutinib at their respective single agent doses. Body weight and MTV was measured on a 2× weekly schedule and the study end point was when all mice were removed from the study on day 54. Statistical analysis was performed using survival analysis and the Logrank test (Mantel-Cox test). Data are expressed as MTV±SEM.

[3] = system: r/r subjects with MCL; details: r/r MCL following bortezomib; cited from earlier work
[4] = Plasma PK and interconversion in rat; assay type: in vivo; details: Compound 1 30 mg/kg PO
Description: (§1) Compound 1 was administered to a rat at a concentration of 30 mg/kg PO and monkeys at a concentration of either 60 μg/kg or 100 μg/kg PO. At the indicated timepoints shown in FIG. 25A and FIG. 25B, plasma samples were collected and the Cmax, half-life, and AUC0-inf were determined for both Compound 1 and a metabolite of Compound 1, Compound 14. The percent of Compound 14 was also determined (Table 13). PK values dose normalized to 1 mg/kg. FIG. 25A is a graph measuring the concentration of Compound 1 or Compound 14 over the course of 24 hours in monkeys administered 100 μg/kg or 60 μg/kg of Compound 1. FIG. 25B is a graph measuring the concentration of Compound 1 or Compound 14 over the course of 24 hours in a rat administered 30 mg/kg of Compound 1.

[5] = Plasma PK and interconversion in monkeys; assay type: in vivo; details: monkey, Compound 1 60 μg/kg or 100 μg/kg PO, dose normalized to 1 mg/kg
Description: as §1

[6] = system: RPMI-8226 multiple myeloma tumors; details: Compound 1 10 μg/kg PO daily, Dexamethasone 5000 μg/kg IV once a week, Combination
Description: A xenograft study was conducted in female CB17 SCID mice bearing RPMI-8226 multiple myeloma tumors. Female SCID mice were inoculated subcutaneously in the right flank with 10×10^6 tumors cells in 0.2 mL of PBS supplemented with matrigel (PBS:matrigel=1:1). Tumor volume was measured twice weekly in two dimensions using calipers, and volume was calculated using the formula: (w2×l)/2=mm^3, assuming 1 mg is equivalent to 1 mm^3 of tumor volume. […] Treatment began on Day 0 with established subcutaneous RPMI-8226 tumors with a mean tumor volume (MTV) of 130 mm^3.
All agents were administered to mice bearing RPMI-8226 tumors on day 0 and dosed until an individual moue tumor volume reached or exceeded 1000 mm^3, at which point the mouse was removed from the study and dosing stopped. […] Dexamethasone was dosed IV once a week at 5000 μg/kg and formulated in saline. […] Body weight and MTV were measured on a 2× weekly schedule. The study end point was reaching a TV greater than 1000 mm^3, at which point any mouse with a TV reaching this cut off TV was removed from the study. […] The survival analysis used was Logrank (Mantel-Cox test). Data are expressed as MTV±SEM.

| SMILES | GI50 [1] | other results |
| --- | --- | --- |
| CC1(CN2CCC(n3cc(Cc4ccc5c6c(cccc46)C(=O)N5C4CCC(=O)NC4=O)cn3)CC2)CC1 (centres unmarked) [Compound 7, 3-(6-((1-(1-((1-methylcyclopropyl)methyl)piperidin-4-yl)-1H-pyrazol-4-yl)methyl)-2-oxobenzo[cd]indol-1(2H)-yl)piperidine-2,6-dione] | 15.9 pM | – |
| CC1(C(=O)N2CCC(C)(n3cc(Cc4ccc5c6c(cccc46)C(=O)N5C4CCC(=O)NC4=O)cn3)CC2)CCC1 (centres unmarked) [Compound 6, 3-(6-((1-(4-methyl-1-(1-methylcyclobutane-1-carbonyl)piperidin-4-yl)-1H-pyrazol-4-yl)methyl)-2-oxobenzo[cd]indol-1(2H)-yl)piperidine-2,6-dione] | 14.6 pM | – |
| O=C1CCC(N2C(=O)c3cccc4c(Cc5cnn(C6CCN(CC7(F)CC7)CC6)c5)ccc2c34)C(=O)N1 (centres unmarked) [Compound 13, 3-(6-((1-(1-((1-fluorocyclopropyl)methyl)piperidin-4-yl)-1H-pyrazol-4-yl)methyl)-2-oxobenzo[cd]indol-1(2H)-yl)piperidine-2,6-dione] | 155 pM | – |
| C=CC(=O)N1CCC[C@@H](n2nc(-c3ccc(Oc4ccccc4)cc3)c3c(N)ncnc32)C1 [Ibrutinib, 1-[(3R)-3-[4-amino-3-(4-phenoxy-phenyl)pyrazolo[3,4-d]pyrimidin-1-yl]piperidin-1-yl]prop-2-en-1-one, reference compound] | – | Median Survival [2]: 28 |
| Nc1cccc2c1CN(C1CCC(=O)NC1=O)C2=O (centres unmarked) [lenalidomide] | – | median duration of response [DOR] [3]: 16.6 months; overall response rate [ORR] [3]: 28% |
| CC1(CN2CCC(n3cc(Cc4ccc5c6c(cccc46)C(=O)N5C4CCC(=O)NC4=O)cn3)CC2)CCC1 (centres unmarked) [Compound 2, 3-(6-((1-(1-((1-methylcyclobutyl)methyl)piperidin-4-yl)-1H-pyrazol-4-yl)methyl)-2-oxobenzo[cd]indol-1(2H)-yl)piperidine-2,6-dione] | 9.33 pM | – |
| CC1(CN2CCC(C)(n3cc(Cc4ccc5c6c(cccc46)C(=O)N5C4CCC(=O)NC4=O)cn3)CC2)CC1 (centres unmarked) [Compound 8, 3-(6-((1-(4-methyl-1-((1-methylcyclopropyl)methyl)piperidin-4-yl)-1H-pyrazol-4-yl)methyl)-2-oxobenzo[cd]indol-1(2H)-yl)piperidine-2,6-dione] | 138 pM | – |
| CC(C)(C)C(=O)N1CCC(C)(n2cc(Cc3ccc4c5c(cccc35)C(=O)N4C3CCC(=O)NC3=O)cn2)CC1 (centres unmarked) [Compound 11, 3-(6-((1-(4-methyl-1-pivaloylpiperidin-4-yl)-1H-pyrazol-4-yl)methyl)-2-oxobenzo[cd]indol-1(2H)-yl)piperidine-2,6-dione] | 27.2 pM | – |
| CC(C)(C)CN1CCC(n2cc(Cc3ccc4c5c(cccc35)C(=O)N4C3CCC(=O)NC3=O)cn2)CC1 (centres unmarked) [Compound 9, 3-(6-((1-(1-neopentylpiperidin-4-yl)-1H-pyrazol-4-yl)methyl)-2-oxobenzo[cd]indol-1(2H)-yl)piperidine-2,6-dione] | 29.7 pM | – |
| O=C1CC[C@H](N2C(=O)c3cccc4c(Cc5ccc(CN6CCC7(CCCO7)CC6)cc5)ccc2c34)C(=O)N1 (single isomer, unassigned) [Compound 12] | 10.7 pM | – |
| O=C1CC[C@@H](N2C(=O)c3cccc4c(Cc5ccc(CN6CCOCC6)cc5)ccc2c34)C(=O)N1 [Compound 14] | – | AUC(0-inf) ([4]; dose normalized to 1 mg/kg): 47 ng·h/mL; Cmax ([4]; dose normalized to 1 mg/kg): 6 ng/mL; half-life ([4]; read-out: T ½ (converted)): 2.7 h; Cmax [5]: 5 ng/mL |
| C[C@@H]1C[C@H]2[C@@H]3CCC4=CC(=O)C=C[C@]4(C)[C@@]3(F)[C@@H](O)C[C@]2(C)[C@@]1(O)C(=O)CO [Dexamethasone, reference compound] | – | Median Survival [6]: 30 |
| N#Cc1ccc(N2CCN(Cc3ccc(Cc4ccc5c6c(cccc46)C(=O)N5C4CCC(=O)NC4=O)cc3)CC2)c(F)c1 (centres unmarked) [Compound 4, 4-(4-(4-((1-(2,6-dioxopiperidin-3-yl)-2-oxo-1,2-dihydrobenzo[cd]indol-6-yl)methyl)benzyl)piperazin-1-yl)-3-fluorobenzonitrile] | 20.1 pM | – |
| O=C1CCC(N2C(=O)c3cccc4c(Cc5ccc(CN6CCOCC6)cc5)ccc2c34)C(=O)N1 (centres unmarked) [Compound 5, 3-(6-(4-(morpholinomethyl)benzyl)-2-oxobenzo[cd]indol-1(2H)-yl)piperidine-2,6-dione] | 49.8 pM | – |
| CC(C)(C)CN1CCC(C)(n2cc(Cc3ccc4c5c(cccc35)C(=O)N4C3CCC(=O)NC3=O)cn2)CC1 (centres unmarked) [Compound 10, 3-(6-((1-(4-methyl-1-neopentylpiperidin-4-yl)-1H-pyrazol-4-yl)methyl)-2-oxobenzo[cd]indol-1(2H)-yl)piperidine-2,6-dione] | 62.1 pM | – |
| O=C1CCC(N2C(=O)c3cccc4c(Cc5ccc(CN6CCN(c7ccccc7F)CC6)cc5)ccc2c34)C(=O)N1 (centres unmarked) [Compound 3, 3-(6-(4-((4-(2-fluorophenyl)piperazin-1-yl)methyl)benzyl)-2-oxobenzo[cd]indol-1(2H)-yl)piperidine-2,6-dione] | 40.9 pM | – |

— patent US20230190760A1, “ADVANTAGEOUS THERAPIES FOR DISORDERS MEDIATED BY IKAROS OR AIOLOS” (C4 Therapeutics, Inc., priority 2020, published 2023)
